Structures can show the parent of a compound that is named as a salt.
What was measured:
sonic hedgehog pathway [1] = assay: Human hedgehog reporter assay Daoy-GliLuc (DGL); type: cell-based
Excerpt: (§1) Mouse (TM3: mouse Leydig cells; S12: mouse embryonic mesenchymal cells) and human (Daoy: human medulloblastoma cell; HepM: human embryonic palatal mesenchymal cell) cell lines are used to screen small molecules for their ability to modulate the activity of the sonic hedgehog pathway (Table 1, Table 2, and Table 3). Stable hedgehog pathway reporter cell lines are established by specific antibiotic selection following transfection of a reporter plasmid containing a luciferase gene located directly downstream from the gli promoter. Consequently, any observable changes in cellular luciferase activity may be attributed to changes in sonic hedgehog pathway activity in mouse and human cells, respectively, since gli is the major by-product of this pathway. To calculate activity, we generate an eleven point dose curve for each compound using 1:3 dilutions in 96 well assay plates. Each plate tested also contains low and high control to establish maximal pathway activation so to establish/compare a percentage activation of each tested compound (AMAX) on respective plates.
(§2) Stable hedgehog pathway reporter cell lines are established following specific antibiotic selection following transfection of a reporter plasmid
(§3) In short, typically cells are plated in MicroTiter-plates at 10,000-20,000 cells per well, in growth media (containing 10%-20% FBS). After 48-72 hrs (HGL and DGL respectively) the media in the assay plates is switched to low-serum containing media (0.5% FBS). At that time compounds are added (at 1-5 μM) to the assay plates, in the presence or absence of hedgehog protein (octyl-modified version; 1-5 ng/ml). After another 24 hrs of incubation, the media from the assay plates is discarded and replaced with luciferase assay-mix. Subsequently, plates are incubated at RT for ˜15-30 mins and then read in a luminometer. [note: addition of the Hedgehog protein, although not critical, will sensitize the assay allowing the identification of weak actives].

sonic hedgehog pathway [2] = assay: Hedgehog reporter assay (gli-luciferase) in S12 cells; type: cell-based; details: S12 mouse embryonic mesenchymal cells
Excerpt: as §1, with “respective plates. Also we calculate EC50 values, or a concentration where the pathway will be exactly 50% activated, for each tested compound to determine potency. In these cell lines, compounds that register >20% AMAX values are considered active.” for “respective plates.”
as §2, §3

[3] = Daoy human medulloblastoma cells, gli-luciferase reporter, read-out: Daoy Avg. EC50
[4] = Daoy human medulloblastoma cells, gli-luciferase reporter, read-out: Human Daoy (Gli-Luc) Avg. EC50
[5] = Homo sapiens, Daoy, read-out: Human Daoy (Gli-Luc) Avg. EC50 (nM)

| SMILES | EC50 (sonic hedgehog pathway [1]; [3]) [nM] | EC50 (sonic hedgehog pathway [1]; [4]) [nM] | EC50 (sonic hedgehog pathway [2]; read-out: S12 Avg. EC50) [nM] | EC50 (sonic hedgehog pathway [2]; read-out: Mouse S12 Avg. EC50) [nM] | EC50 (sonic hedgehog pathway [1]; [5]) [nM] |
| --- | --- | --- | --- | --- | --- |
| CNC1CCC(N(Cc2cc(-c3ccncc3)ccc2C)C(=O)c2sc3c(F)ccc(F)c3c2Cl)CC1 (stereo not drawn) [Compound 392, 3-Chloro-4,7-difluoro-benzo[b]thiophene-2-carboxylic acid (4-methylamino-cyclohexyl)-(2-methyl-5-pyridin-4-yl-benzyl)-amide bis(trifluoroacetate)] | – | < 50 | – | < 50 | – |
| CN[C@H]1CC[C@H](N(Cc2cc(-c3cncc(F)c3)ccc2OC)C(=O)c2sc3cccc(F)c3c2Cl)CC1 [Compound 383, 3-chloro-4-fluoro-N-(5-(5-fluoropyridin-3-yl)-2-methoxybenzyl)-N-((1s,4s)-4-(methylamino)cyclohexyl)benzo[b]thiophene-2-carboxamide] | – | < 50 | – | < 50 | – |
| CNC1CCC(N(Cc2cc(-c3ccc(S(=O)(=O)N(C)C)cc3)ccc2OC)C(=O)c2sc3c(F)ccc(F)c3c2Cl)CC1 (stereo not drawn) [Compound 391, 3-Chloro-4,7-difluoro-benzo[b]thiophene-2-carboxylic acid (4′-dimethylsulfamoyl-4-methoxy-biphenyl-3-ylmethyl)-(4-methylamino-cyclohexyl)-amide trifluoroacetate] | – | – | – | < 50 | < 50 |
| CNC1CCC(N(Cc2cc(-c3ccncc3F)ccc2OC)C(=O)c2sc3cccc(F)c3c2Cl)CC1 (stereo not drawn) [Compound 387, 3-Chloro-4-fluoro-benzo[b]thiophene-2-carboxylic acid[5-(3-fluoro-pyridin-4-yl)-2-methoxy-benzyl]-(4-methylamino-cyclohexyl)-amide] | – | < 50 | – | < 50 | – |
| CNC1CCC(N(Cc2cc(-c3ccc(S(N)(=O)=O)cc3)ccc2OC)C(=O)c2sc3c(F)ccc(F)c3c2Cl)CC1 (stereo not drawn) [Compound 388, 3-Chloro-4,7-difluoro-benzo[b]thiophene-2-carboxylic acid(4-methoxy-4′-sulfamoyl-biphenyl-3-ylmethyl)-(4-methylamino-cyclohexyl)-amide hydrochloride] | – | < 50 | – | < 50 | – |
| COc1ccc(-c2cncc(F)c2)cc1CN(C(=O)c1sc2c(F)ccc(F)c2c1Cl)[C@H]1CC[C@H](N)CC1 [Compound 416] | 50 to 250 | – | < 50 | – | – |
| CNC1CCC(N(Cc2cc(-c3ccc(CS(C)(=O)=O)cc3)ccc2OC)C(=O)c2sc3c(F)ccc(F)c3c2Cl)CC1 (stereo not drawn) [Compound 369, 3-Chloro-4,7-difluoro-benzo[b]thiophene-2-carboxylic acid(4′-methanesulfonylmethyl-4-methoxy-biphenyl-3-ylmethyl)-(4-methylamino-cyclohexyl)-amide hydrochloride] | – | < 50 | – | < 50 | – |
| CNC1CCC(N(Cc2cc(-c3ccc(N(C)S(C)(=O)=O)cc3)ccc2OC)C(=O)c2sc3c(F)ccc(F)c3c2Cl)CC1 (stereo not drawn) [Compound 371, 3-Chloro-4,7-difluoro-benzo[b]thiophene-2-carboxylic acid[4′-(methanesulfonyl-methyl-amino)-4-methoxy-biphenyl-3-ylmethyl]-(4-methylamino-cyclohexyl)-amide hydrochloride] | – | < 50 | – | < 50 | – |
| CNC1CCC(N(Cc2cc(-c3ccc(NS(C)(=O)=O)cc3)ccc2OC)C(=O)c2sc3c(F)ccc(F)c3c2Cl)CC1 (stereo not drawn) [Compound 370, 3-Chloro-4,7-difluoro-benzo[b]thiophene-2-carboxylic acid (4′-methanesulfonylamino-4-methoxy-biphenyl-3-ylmethyl)-(4-methylamino-cyclohexyl)-amide hydrochloride] | – | – | – | < 50 | < 50 |
| C=Cc1ccc(-c2ccc(OC)c(CN(C(=O)c3sc4c(F)ccc(F)c4c3Cl)[C@H]3CC[C@H](N)CC3)c2)cc1 [Compound 393, N-((1r,4r)-4-aminocyclohexyl)-3-chloro-4,7-difluoro-N-((4-methoxy-4′-vinylbiphenyl-3-yl)methyl)benzo[b]thiophene-2-carboxamide] | – | 50 to 250 | – | 50 to 250 | – |
| COc1ccc(-c2ccc(S(C)(=O)=O)cc2)cc1CN(C(=O)c1sc2c(F)ccc(F)c2c1Cl)C1CCC(N)CC1 (stereo not drawn) [Compound 390, 3-Chloro-4,7-difluoro-benzo[b]thiophene-2-carboxylic acid (4-amino-cyclohexyl)-(4′-methanesulfonyl-4-methoxy-biphenyl-3-ylmethyl)-amide hydrochloride] | – | – | – | < 50 | < 50 |
| CCS(=O)(=O)c1ccc(-c2ccc(OC)c(CN(C(=O)c3sc4c(F)ccc(F)c4c3Cl)C3CCC(NC)CC3)c2)cc1 (stereo not drawn) [Compound 389, 3-Chloro-4,7-difluoro-benzo[b]thiophene-2-carboxylic acid (4′-ethanesulfonyl-4-methoxy-biphenyl-3-ylmethyl)-(4-methylamino-cyclohexyl)-amide hydrochloride] | – | – | – | < 50 | < 50 |
| COc1ccc(-c2cccnc2)cc1CN(C(=O)c1sc2cccc(F)c2c1Cl)[C@H]1CC[C@H](N)CC1 [Compound 410, 3-Chloro-4-fluoro-benzo[b]thiophene-2-carboxylic acid(4-amino-cyclohexyl)-(2-methoxy-5-pyridin-3-yl-benzyl)-amide] | < 50 | – | < 50 | – | – |
| CCc1ccc(-c2ccncc2)cc1CN(C(=O)C1=C(Cl)c2c(F)ccc(F)c2C1)[C@H]1CC[C@@H](NC)CC1 [Compound 395, 3-Chloro-4,7-difluoro-benzo[b]thiophene-2-carboxylic acid(2-ethyl-5-pyridin-4-yl-benzyl)-(4-methylamino-cyclohexyl)-amide dihydrochloride] | – | 50 to 250 | – | 50 to 250 | – |

Continued, in another order:

| EC50 (sonic hedgehog pathway [1]; [3]) [nM] | EC50 (sonic hedgehog pathway [1]; [4]) [nM] | SMILES | EC50 (sonic hedgehog pathway [2]; read-out: S12 Avg. EC50) [nM] | EC50 (sonic hedgehog pathway [2]; read-out: Mouse S12 Avg. EC50) [nM] | EC50 (sonic hedgehog pathway [1]; [5]) [nM] |
| --- | --- | --- | --- | --- | --- |
| 250 to 1000 | – | CNC1CCC(N(Cc2cc(-c3ccccc3SC)ccc2OC)C(=O)c2sc3c(F)ccc(F)c3c2Cl)CC1 (stereo not drawn) [Compound 408, 3-Chloro-4,7-difluoro-benzo[b]thiophene-2-carboxylic acid (4-methoxy-2′-methylsulfanyl-biphenyl-3-ylmethyl)-(4-methylamino-cyclohexyl)-amide hydrochloride] | 250 to 1000 | – | – |
| – | < 50 | CN[C@H]1CC[C@H](N(Cc2cc(-c3ccc(F)nc3)ccc2OC)C(=O)c2sc3c(F)ccc(F)c3c2Cl)CC1 [Compound 379, 3-Chloro-4,7-difluoro-benzo[b]thiophene-2-carboxylic acid[5-(6-fluoro-pyridin-3-yl)-2-methoxy-benzyl]-(4-methylamino-cyclohexyl)-amide] | – | < 50 | – |
| – | < 50 | CN[C@H]1CC[C@H](N(Cc2cc(-c3cccnc3F)ccc2OC)C(=O)c2sc3c(F)ccc(F)c3c2Cl)CC1 [Compound 378, 3-Chloro-4,7-difluoro-benzo[b]thiophene-2-carboxylic acid[5-(2-fluoro-pyridin-3-yl)-2-methoxy-benzyl]-(4-methylamino-cyclohexyl)-amide] | – | < 50 | – |
| – | < 50 | CN[C@H]1CC[C@H](N(Cc2cc(-c3ccc(F)nc3)ccc2OC)C(=O)c2sc3cccc(F)c3c2Cl)CC1 [Compound 382, 3-Chloro-4-fluoro-benzo[b]thiophene-2-carboxylic acid[5-(6-fluoro-pyridin-3-yl)-2-methoxy-benzyl]-(4-methylamino-cyclohexyl)-amide] | – | < 50 | – |
| – | < 50 | CNC1CCC(N(Cc2cc(-c3cc[n+]([O-])cc3)ccc2OC)C(=O)c2sc3c(F)ccc(F)c3c2Cl)CC1 (stereo not drawn) [Compound 374, 4-(3-((3-chloro-4,7-difluoro-N-((1s,4s)-4-(methylamino)cyclohexyl)benzo[b]thiophene-2-carboxamido)methyl)-4-methoxyphenyl)pyridine 1-oxide] | – | < 50 | – |
| – | < 50 | CN[C@H]1CC[C@H](N(Cc2cc(-c3cncc(F)c3)ccc2OC)C(=O)c2sc3c(F)ccc(F)c3c2Cl)CC1 [Compound 380, 3-Chloro-4,7-difluoro-benzo[b]thiophene-2-carboxylic acid[5-(5-fluoro-pyridin-3-yl)-2-methoxy-benzyl]-(4-methylamino-cyclohexyl)-amide] | – | < 50 | – |
| – | < 50 | CNC1CCC(N(Cc2cc(-c3ccnc(F)c3)ccc2OC)C(=O)c2sc3cccc(F)c3c2Cl)CC1 (stereo not drawn) [Compound 385, 3-Chloro-4-fluoro-benzo[b]thiophene-2-carboxylic acid[5-(2-fluoro-pyridin-4-yl)-2-methoxy-benzyl]-(4-methylamino-cyclohexyl)-amide] | – | < 50 | – |
